Test system: human eye
Experiment: higher-order wavefront aberrations (rms) measured with a wavefront analyzer in subjects treated for 6 months
Type: in vivo
Settings: human subjects treated for 6 months; 20 mg/day zeaxanthin (Z), 20 mg/day lutein (L), or 10 mg lutein+10 mg zeaxanthin per day (C, P-C); versus placebo; FIG. 1
Description: The wavefront aberration function is a way of quantifying the imperfections of the optics of the eye that cause degradation of retinal image quality. The “ideal” wavefront is generated when a “point” on the retina is imaged through the optics of the eye as a plane and flat surface just outside the eye. This means that all the rays emerging from the eye form a parallel bundle and are perpendicular to this plane. The “real” wavefront surface is not a perfect two-dimensional plane and reflects the aberrations present in the optical system. It is usually represented mathematically by a series of terms known as Zernike polynomials. A knowledge of the coefficients of the Zernike polynomials provides a complete description of the wavefront surface. In order to obtain one single number that describes the quality of the imaging system (in this case the human eye) the root mean square (rms) deviation is calculated by computing the root of the mean of the squares of the actual deviations from the ideal plane. The rms value is equivalent to a standard deviation, but the two functions compared are 2D surfaces (i.e., the ideal wavefront and the actual wavefront). The wavefront aberrations are measured with a wavefront analyzer (see, e.g., J. Refract. Surg. 2001; 17(5), S608-S612). […]

SMILES	higher-order wavefront aberrations in the human eye
CC1=C[C@H](O)CC(C)(C)[C@H]1/C=C/C(C)=C/C=C/C(C)=C/C=C/C=C(C)/C=C/C=C(C)/C=C/C1=C(C)C[C@@H](O)CC1(C)C [lutein]	reduction of higher-order wavefront aberrations
CC1=C(/C=C/C(C)=C/C=C/C(C)=C/C=C/C=C(C)/C=C/C=C(C)/C=C/C2=C(C)C[C@@H](O)CC2(C)C)C(C)(C)C[C@H](O)C1 [zeaxanthin]	reduction of higher-order wavefront aberrations

From patent publication US20080045605A1, “Image Quality in the Eye” (priority 2004, published 2008)
